Measurements: patent US9511086B2, “Method for improving immune system function by administering agents that inhibit DNA-dependent protein kinase-directed apoptosis” (The Board of Trustees of the Leland Stanford Junior …, priority 2010, dated 2016)

Legend:
[1] = tested on: Bim; assay: Bim protein level by flow cytometry in RA T cells; type: cell-based, human; conditions: treated vs untreated
Protocol: (§1) FIG. 8. The DNA-PKcs-JNK pathway upregulates the apoptogenic molecules Bim and Bmf in RA CD4+ T cells. CD4+CD45RO− T cells were isolated from the peripheral blood of 6 controls and 6 RA patients. Cells were maintained in culture without mitogenic stimulation for 72 h. (A) Puma, Noxa, Bim and Bmf transcript levels in freshly isolated cells were quantified by qPCR. Data are presented as mean±SEM. (B) Flow cytometry analysis of Bim levels in control and RA naïve T cells after 72 h of culture. Expression of Bim protein in n=5 RA and n=5 controls samples is given as MFI of Alexa Fluor 488 Bim. (C) Flow cytometry analysis of Bmf levels in control and RA naïve T cells. Expression of Bmf protein in n=6 RA and n=4 controls samples is given as MFI of PE Bmf. (D) Bcl-2 protein levels were analyzed by flow cytometry. Expression of Bcl-2 protein in n=6 RA and n=6 control samples is given as MFI of FITC Bcl-2. (E) Bim protein level in the absence and presence of the DNA-PKcs inhibitor were analyzed by flow cytometry in samples from 4 RA patients. […]
(§2) For intracellular staining, cells were fixed directly with 1.5% formaldehyde for 10 min at room temperature and resuspended in 90% methanol. […] Proteins or 8-oxoguanine expression were detected by an LSRII flow cytometer (BD Biosciences). Data were analyzed by FlowJo software (Tree Star Inc., Ashland, Oreg.). […]

[2] = tested on: Bmf; assay: Bmf protein level by flow cytometry in RA T cells; type: cell-based, human; conditions: treated vs untreated
Protocol: as §1, §2

[3] = tested on: CD4+CD45RO− T cells from RA patients; assay: T-cell apoptosis by flow cytometry staining for PI, RA T cells; type: cell-based, human
Protocol: FIG. 5. Inhibition of DNA-PKcs activity protects RA T cells from apoptosis. CD4+CD45RO− T cells were isolated from 6 control donors and 7 RA patients. Cells were maintained in culture without stimulation for 48 h and then were treated with the DNA-PKcs inhibitor IC86621 (50 nM, 100 nM) or vehicle for 24 h. Cells were harvested and (A) T-cell apoptosis was measured by flow cytometry staining for PI. Representative cytometric data from one patient and one control are shown. (B) Frequencies of PI-positive T-cells in the absence and presence of the DNA-PKcs inhibitor from 6 controls and 7 RA patients are presented as mean±SEM.
FIG. 6. Silencing of the DNA-PKcs gene reduces apoptosis in RA T cells. CD4+CD45RO− T cells were purified from 3 control donors and 3 RA patients and transfected with control or DNA-PKcs specific siRNA oligonucleotides by nucleofection. (A, B) Twenty-four hours after transfection, DNA-PKcs transcript levels were quantified by qPCR, and DNA-PKcs protein levels were detected by Western blotting. (C) T-cell apoptosis was analyzed by staining for PI. Representative data from one patient and one control are shown. (D) Cell apoptosis from 3 control and 3 RA samples are presented as mean±SEM.
FIG. 7. […] (A) CD4+CD45RO− T cells were isolated and cultured in the presence of the indicated enzyme inhibitors for 24 h. T-cell apoptosis was quantified through flow cytometry staining for PI. (B) Cells were maintained in culture without stimulation for 48 h and then were treated with the JNK inhibitor. PI-positive T cells were measured after 24 h of treatment with the JNK inhibitor II (5 μM or 10 μM) or vehicle. Frequencies of apoptotic T cells from 6 controls and 7 RA patients are presented as mean±SEM. (C) Representative flow cytometry results from one control and one patient. (D) Flow cytometry analysis of phosphorylated JNK levels in control and RA T cells after culturing without mitogenic stimulation for 72 h. Representative data from one patient and one control are presented. (E) Expression of pJNK protein in n=6 RA and n=6 control samples at 72 h is given as MFI of FITC-pJNK. (F) Flow cytometry analysis of phosphorylated JNK levels in freshly isolated control and RA naïve CD4 T cells. Expression of pJNK protein in n=7 RA and n=7 control samples at day 0 is given as MFI of FITC-pJNK. (G) Quantification of JNK and pJNK protein expression at 72 h by Western blotting. (H) Relative expression levels of pJNK were quantified by measuring band intensities adjusted by total JNK in 6 RA patients and 6 control donors. Data are presented as mean±SEM. (I) CD4+CD45RO− T cells were purified from RA donors and transfected with control or DNA-PKcs-specific siRNA oligonucleotides by nucleofection. Twenty-four hours after transfection, DNA-PKcs and pJNK protein levels were detected by Western blotting. A representative blot from three independent experiments is shown.
Peripheral blood mononuclear cells (PBMC) were separated from whole blood with Lymphocyte Separation Medium (Mediatech Inc., Herndon, Va.). CD45RO^− cells were negatively selected with microbeads (Miltenyi Biotec Inc., Auburn, Calif.), and the naïve CD4^+CD45RO^− population was subsequently selected with CD4 microbeads (autoMACS, Miltenyi Biotec Inc.).
CD4^+CD45RO^− T cells were maintained in a resting state in DMEM without mitogenic stimulation for three days. In selected experiments, T-cell homeostatic cytokines were supplemented. To test for the role of signaling networks in mediating apoptosis, the following inhibitors were added to the cultures at day 0: DNA-PKcs inhibitor IC86621 (Sigma-Aldrich, St. Louis, Mo.), JNK inhibitor II (Calbiochem, La Jolla, Calif.), p38 inhibitor (Alexis Biochemicals, Plymouth Meeting, Pa., SB203580), CaM inhibitor (Calbiochem), NE-KB inhibitor (Calbiochem), and AKT inhibitor (Calbiochem). […]

[4] = molecular target: T1, IL-1R type I (Homo sapiens, UniProt P14778); conditions: cited from earlier work
T1 sequence (P14778 18-569): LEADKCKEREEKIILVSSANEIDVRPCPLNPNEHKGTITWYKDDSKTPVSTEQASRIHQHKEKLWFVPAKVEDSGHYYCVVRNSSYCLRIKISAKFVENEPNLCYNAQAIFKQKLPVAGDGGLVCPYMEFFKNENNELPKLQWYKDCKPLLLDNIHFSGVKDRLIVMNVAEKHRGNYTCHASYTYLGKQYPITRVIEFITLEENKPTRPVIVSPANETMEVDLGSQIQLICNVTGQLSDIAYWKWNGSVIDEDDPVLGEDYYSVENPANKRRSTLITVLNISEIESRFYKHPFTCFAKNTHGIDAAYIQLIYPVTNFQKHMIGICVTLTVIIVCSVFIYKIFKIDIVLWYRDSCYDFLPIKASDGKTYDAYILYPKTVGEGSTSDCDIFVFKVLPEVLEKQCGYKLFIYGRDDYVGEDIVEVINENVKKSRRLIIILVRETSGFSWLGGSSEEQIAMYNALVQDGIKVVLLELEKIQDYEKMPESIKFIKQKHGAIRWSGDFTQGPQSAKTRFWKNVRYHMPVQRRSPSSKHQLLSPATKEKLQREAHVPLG

[5] = tested on: CD4+CD45RO− T cells from RA patients and controls; assay: T-cell apoptosis (PI) with homeostatic cytokines; type: cell-based, human; conditions: 72 h culture; IL-2 20 U/ml, IL-7 20 ng/ml, IL-15 10 ng/ml; similar in control and RA T cells
Protocol: FIG. 1. […] CD4+CD45RO− T cells were isolated from the peripheral blood of RA patients and controls. Cells were maintained in culture without mitogenic stimulation for 72 h. (A) T cells undergoing apoptosis were identified by Annexin V and 7-AAD staining in patient-derived and control samples. Data are given as mean±SEM from 6 patients and 6 controls. (B) Representative data from one patient and one control collected after 72 h are shown. (C) Cells were maintained in culture with IL-2 (20 U/ml), IL-7 (20 ng/ml), IL-15 (10 ng/ml), or a mixture of the three (Mix) for 72 h. T cells undergoing apoptosis were identified by PI staining. Data are given as mean±SEM from 7 patients and 5 controls. (D) DNA breaks were quantified by comet assay after 72 h. Data are given as mean±SEM of 7 patients and 6 controls with a minimum of 90 individual cells analyzed in each sample.
To quantify T-cell apoptosis, CD4^+CD45RO^− cells were washed and suspended in 500 μl FACS buffer supplemented with EasyComp Blank Particles (Spherotech, Lake Forest, Ill.). Uptake of PI (Sigma-Aldrich) was determined by flow cytometry. Apoptotic cells were detected with PE-Annexin V (BD Biosciences, San Jose, Calif.) and 7-AAD (BD Biosciences).

[6] = tested on: B cells in blood and tissue; conditions: cynomolgus monkeys; cited from earlier work
[7] = molecular target: TNFα (Homo sapiens, UniProt P01375); conditions: cited from earlier work
TNFα, sequence (P01375 77-233 limits assumed): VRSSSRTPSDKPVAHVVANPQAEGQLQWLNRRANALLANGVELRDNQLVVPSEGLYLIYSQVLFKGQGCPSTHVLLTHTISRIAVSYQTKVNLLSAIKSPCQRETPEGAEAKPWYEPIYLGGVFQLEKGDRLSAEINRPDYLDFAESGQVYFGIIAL

[8] = tested on: rheumatoid arthritis; conditions: cited from earlier work

## O=C1c2ccccc2-c2n[nH]c3cccc1c23 [JNK inhibitor II, anthra(1,9-cd)pyrazol-6(2H)-one]
[1]
  intracellular Bim levels: reduced
[2]
  intracellular Bmf levels: reduced
[3]; RA T cells cultured with inhibitor for 24 h, PI staining
  T cell death in screen with panel of signal pathway inhibitors: able to protect RA T cells from dying
[3]; RA T cells, 48 h culture then 5 μM or 10 μM for 24 h
  death rate in dose-response experiments: normalize the death rate
[3]; RA T cells, PI-positive cells after 24 h of treatment
  effectiveness of 10 μM compared with 5 μM: more effective

## Anakinra: human recombinant IL-1 receptor antagonist
[4]
  affinity of binding to IL-1R type I: same affinity as IL-1

## IL-15: growth-promoting, T-cell homeostatic cytokine
[5]
  apoptosis rates / T-cell attrition: prevented only one-third of the T-cell attrition

## LymphoStat-B: fully human IgG1λ monoclonal antibody that neutralizes human BlyS
[6]
  B cells in blood and tissue: selectively reduces B cells in blood and tissue
  toxicity: no overt toxicity

## Etanercept
[7]
  affinity for TNFα of the dimeric receptor relative to the monomeric receptor: 50-1000 fold

## CN(Cc1cnc2nc(N)nc(N)c2n1)c1ccc(C(=O)N[C@@H](CCC(=O)O)C(=O)O)cc1 [MTX, Methotrexate]
[8]
  patients having some response: 70%

B1: IL-7: growth-promoting, T-cell homeostatic cytokine (protein, UniProt P13232 26-177, looked up)
Interleukin-7: DCDIEGKDGKQYESVLMVSIDQLLDSMKEIGSNCLNNEFNFFKRHICDANKEGMFLFRAARKLRQFLKMNSTGDFDLHLLKVSEGTTILLNCTGQVKGRKPAALGEAQPTKSLEENKSLKEQKKLNDLCFLKRLLQEIKTCWNKILMGTKEH
[5]
  apoptosis rates / T-cell attrition: prevented only one-third of the T-cell attrition
